Measured values from the NIST ThermoML archive (doi:10.1016/j.jct.2010.06.008).
Numbers after ± are expanded uncertainties.

Experiment: xn = mol fraction of the nth substance listed
Details: 101 kPa, Liquid; for mass density: Vibrating tube method; for speed of sound: Sing-around technique in a fixed-path interferometer

CCCCCl [1-chlorobutane] + CCCCCCC
mass density [kg/m3]
Details | 283.15 K | 298.15 K | 313.15 K
x2 = 0 | 897.339 ± 0.23 | 880.785 ± 0.23 | 863.882 ± 0.24
x2 = 0.0508 | 882.735 ± 0.24 | 866.442 ± 0.24 | 849.802 ± 0.24
x2 = 0.1017 | 868.636 ± 0.24 | 852.592 ± 0.24 | 836.205 ± 0.24
x2 = 0.1981 | 843.549 ± 0.24 | 827.947 ± 0.24 | 812.014 ± 0.24
x2 = 0.2989 | 819.278 ± 0.24 | 804.127 ± 0.24 | 788.662 ± 0.24
x2 = 0.4022 | 796.314 ± 0.24 | 781.594 ± 0.24 | 766.57 ± 0.24
x2 = 0.4998 | 776.207 ± 0.24 | 761.86 ± 0.24 | 747.232 ± 0.25
x2 = 0.6008 | 756.852 ± 0.24 | 742.869 ± 0.25 | 728.632 ± 0.25
x2 = 0.6989 | 739.334 ± 0.25 | 725.722 ± 0.25 | 711.853 ± 0.25
x2 = 0.7985 | 722.761 ± 0.25 | 709.483 ± 0.25 | 695.957 ± 0.25
x2 = 0.898 | 707.234 ± 0.25 | 694.282 ± 0.25 | 681.084 ± 0.25
x2 = 0.9498 | 699.591 ± 0.25 | 686.802 ± 0.25 | 673.764 ± 0.25

CC(C)(C)Cl [2-chloro-2-methylpropane] + CCCCCC
Details | mass density, 283.15 K [kg/m3] | mass density, 298.15 K [kg/m3] | mass density, 313.15 K [kg/m3] | speed of sound, 283.15 K [m/s] | speed of sound, 298.15 K [m/s] | speed of sound, 313.15 K [m/s]
x2 = 0 | 855.249 ± 0.24 | 837.096 ± 0.24 | 818.536 ± 0.24 | 1046.9 ± 2.3 | 983.25 ± 2.3 | 919.41 ± 2.3
x2 = 0.0495 | 843.636 ± 0.24 | 825.763 ± 0.24 | 807.514 ± 0.24 | 1049.8 ± 2.3 | 985.59 ± 2.3 | 922.06 ± 2.3
x2 = 0.0989 | 832.389 ± 0.24 | 814.802 ± 0.24 | 796.851 ± 0.24 | 1052.2 ± 2.3 | 987.79 ± 2.3 | 924.46 ± 2.3
x2 = 0.2019 | 809.862 ± 0.24 | 792.826 ± 0.24 | 775.465 ± 0.24 | 1058.6 ± 2.3 | 993.98 ± 2.3 | 930.06 ± 2.3
x2 = 0.2987 | 789.789 ± 0.24 | 773.235 ± 0.24 | 756.4 ± 0.25 | 1065.7 ± 2.3 | 1000.7 ± 2.3 | 936.45 ± 2.3
x2 = 0.4043 | 768.847 ± 0.24 | 752.8 ± 0.25 | 736.513 ± 0.25 | 1074.5 ± 2.3 | 1009.1 ± 2.3 | 944.41 ± 2.3
x2 = 0.4985 | 751.114 ± 0.25 | 735.482 ± 0.25 | 719.653 ± 0.25 | 1083.1 ± 2.3 | 1017.5 ± 2.3 | 952.34 ± 2.3
x2 = 0.6024 | 732.382 ± 0.25 | 717.205 ± 0.25 | 701.869 ± 0.25 | 1093.7 ± 2.3 | 1027.6 ± 2.3 | 962.01 ± 2.3
x2 = 0.7017 | 715.376 ± 0.25 | 700.606 ± 0.25 | 685.731 ± 0.25 | 1104.7 ± 2.3 | 1038.2 ± 2.3 | 972.24 ± 2.3
x2 = 0.7996 | 699.305 ± 0.25 | 684.94 ± 0.25 | 670.488 ± 0.25 | 1116.6 ± 2.3 | 1049.7 ± 2.3 | 983.31 ± 2.3
x2 = 0.9025 | 683.186 ± 0.25 | 669.222 ± 0.25 | 655.21 ± 0.26 | 1130.4 ± 2.3 | 1063 ± 2.3 | 996.24 ± 2.3
x2 = 0.9498 | 676.073 ± 0.25 | 662.283 ± 0.25 | 648.468 ± 0.26 | 1137.2 ± 2.3 | 1069.5 ± 2.3 | 1002.6 ± 2.3
